In BindingDB's records for doi:10.1016/s0960-894x(02)00516-4 (Atherogenics, 2002):

test: Inhibition of TNF-alpha inducible Vascular cell adhesion molecule-1 expression.

| Structure (SMILES) | IC50 |
| --- | --- |
| CC(C)(Sc1cc(C(C)(C)C)c(O)c(C(C)(C)C)c1)Sc1cc(C(C)(C)C)c(OC(=O)C(F)(F)C(F)(F)C(F)(F)C(=O)O)c(C(C)(C)C)c1 [2,2,3,3,4,4-Hexafluoro-pentanedioic acid mono-{2,6-di-tert-butyl-4-[1-(3,5-di-tert-butyl-4-hydroxy-phenylsulfanyl)-1-methyl-ethylsulfanyl]-phenyl} ester] | 100 µM |
| CC(=O)O/C(=C\C(=O)Oc1c(C(C)(C)C)cc(SC(C)(C)Sc2cc(C(C)(C)C)c(O)c(C(C)(C)C)c2)cc1C(C)(C)C)C(=O)O [2,6-di(tert-butyl)-4-{1-[3,5-di(tert-butyl)-4-hydroxyphenylsulfanyl]-1-methylethylsulfanyl}phenyl 3-carboxylicacid-3-methylcarbonyloxy-(E)-2-propenoate] | 17 µM |
| CC(C)(Sc1cc(C(C)(C)C)c(O)c(C(C)(C)C)c1)Sc1cc(C(C)(C)C)c(O)c(C(C)(C)C)c1 [2,6-di-tert-butyl-4-(2-(3,5-di-tert-butyl-4-hydroxyphenylthio)propan-2-ylthio)phenol] | > 50 µM |
| CC(C)(Sc1cc(C(C)(C)C)c(O)c(C(C)(C)C)c1)Sc1cc(C(C)(C)C)c(OC(=O)CC(O)CO)c(C(C)(C)C)c1 (stereo not drawn) [3,4-Dihydroxy-butyric acid 2,6-di-tert-butyl-4-[1-(3,5-di-tert-butyl-4-hydroxy-phenylsulfanyl)-1-methyl-ethylsulfanyl]-phenyl ester] | 8 µM |
| CC(C)(Sc1cc(C(C)(C)C)c(O)c(C(C)(C)C)c1)Sc1cc(C(C)(C)C)c(OC(=O)CCO)c(C(C)(C)C)c1 [3-Hydroxy-propionic acid 2,6-di-tert-butyl-4-[1-(3,5-di-tert-butyl-4-hydroxy-phenylsulfanyl)-1-methyl-ethylsulfanyl]-phenyl ester] | 30 µM |
| CC(C)(CO)CC(=O)Oc1c(C(C)(C)C)cc(SC(C)(C)Sc2cc(C(C)(C)C)c(O)c(C(C)(C)C)c2)cc1C(C)(C)C [4-Hydroxy-3,3-dimethyl-butyric acid 2,6-di-tert-butyl-4-[1-(3,5-di-tert-butyl-4-hydroxy-phenylsulfanyl)-1-methyl-ethylsulfanyl]-phenyl ester] | 110 µM |
| CC(C)(Sc1cc(C(C)(C)C)c(O)c(C(C)(C)C)c1)Sc1cc(C(C)(C)C)c(OC(=O)CCCO)c(C(C)(C)C)c1 [4-Hydroxy-butyric acid 2,6-di-tert-butyl-4-[1-(3,5-di-tert-butyl-4-hydroxy-phenylsulfanyl)-1-methyl-ethylsulfanyl]-phenyl ester] | 40 µM |
| CC(C)(Sc1cc(C(C)(C)C)c(O)c(C(C)(C)C)c1)Sc1cc(C(C)(C)C)c(OC(=O)CCCCO)c(C(C)(C)C)c1 [5-Hydroxy-pentanoicacid2,6-di-tert-butyl-4-[1-(3,5-di-tert-butyl-4-hydroxy-phenylsulfanyl)-1-methyl-ethylsulfanyl]-phenyl ester] | 55 µM |
| CC(C)(Sc1cc(C(C)(C)C)c(O)c(C(C)(C)C)c1)Sc1cc(C(C)(C)C)c(OC(=O)C[C@@H](NC(=O)Cc2ccccc2)C(=O)O)c(C(C)(C)C)c1 [(R)-2-Phenylacetylamino-succinic acid 4-{2,6-di-tert-butyl-4-[1-(3,5-di-tert-butyl-4-hydroxy-phenylsulfanyl)-1-methyl-ethylsulfanyl]-phenyl} ester] | 20 µM |
| CC(C)(Sc1cc(C(C)(C)C)c(O)c(C(C)(C)C)c1)Sc1cc(C(C)(C)C)c(OC(=O)[C@@H](O)CCC(=O)O)c(C(C)(C)C)c1 [(S)-2-Hydroxy-pentanedioic acid 1-{2,6-di-tert-butyl-4-[1-(3,5-di-tert-butyl-4-hydroxy-phenylsulfanyl)-1-methyl-ethylsulfanyl]-phenyl} ester] | 25 µM |
| CC(C)(Sc1cc(C(C)(C)C)c(O)c(C(C)(C)C)c1)Sc1cc(C(C)(C)C)c(OC(=O)CO)c(C(C)(C)C)c1 [Hydroxy-acetic acid 2,6-di-tert-butyl-4-[1-(3,5-di-tert-butyl-4-hydroxy-phenylsulfanyl)-1-methyl-ethylsulfanyl]-phenyl ester] | 30 µM |
| CC(C)(Sc1cc(C(C)(C)C)c(O)c(C(C)(C)C)c1)Sc1cc(C(C)(C)C)c(OC(=O)CCCCCCC(=O)O)c(C(C)(C)C)c1 [Octanedioic acid mono-{2,6-di-tert-butyl-4-[1-(3,5-di-tert-butyl-4-hydroxy-phenylsulfanyl)-1-methyl-ethylsulfanyl]-phenyl} ester] | 45 µM |
| CC(C)(Sc1cc(C(C)(C)C)c(O)c(C(C)(C)C)c1)Sc1cc(C(C)(C)C)c(OC(=O)C(=O)O)c(C(C)(C)C)c1 [Oxalic acid mono-{2,6-di-tert-butyl-4-[1-(3,5-di-tert-butyl-4-hydroxy-phenylsulfanyl)-1-methyl-ethylsulfanyl]-phenyl} ester] | > 50 µM |
| CC(C)(Sc1cc(C(C)(C)C)c(O)c(C(C)(C)C)c1)Sc1cc(C(C)(C)C)c(OC(=O)CCCC(=O)O)c(C(C)(C)C)c1 [Pentanedioic acid mono-{2,6-di-tert-butyl-4-[1-(3,5-di-tert-butyl-4-hydroxy-phenylsulfanyl)-1-methyl-ethylsulfanyl]-phenyl} ester] | 9 µM |
| COC(=O)CCC(=O)Oc1c(C(C)(C)C)cc(SC(C)(C)Sc2cc(C(C)(C)C)c(O)c(C(C)(C)C)c2)cc1C(C)(C)C [Succinic acid 2,6-di-tert-butyl-4-[1-(3,5-di-tert-butyl-4-hydroxy-phenylsulfanyl)-1-methyl-ethylsulfanyl]-phenyl ester methyl ester] | 40 µM |
| CC(C)(Sc1cc(C(C)(C)C)c(OC(=O)CCC(=O)O)c(C(C)(C)C)c1)Sc1cc(C(C)(C)C)c(OC(=O)CCC(=O)O)c(C(C)(C)C)c1 [Succinic acid mono-(2,6-di-tert-butyl-4-{1-[3,5-di-tert-butyl-4-(3-carboxy-propionyloxy)-phenylsulfanyl]-1-methyl-ethylsulfanyl}-phenyl) ester] | > 50 µM |
| CC(C)(Sc1cc(C(C)(C)C)c(O)c(C(C)(C)C)c1)Sc1cc(C(C)(C)C)c(OC(=O)CCC(=O)O)c(C(C)(C)C)c1 [Succinic acid mono-{2,6-di-tert-butyl-4-[1-(3,5-di-tert-butyl-4-hydroxy-phenylsulfanyl)-1-methyl-ethylsulfanyl]-phenyl} ester] | 6 µM |
| CC(C)(Sc1cc(C(C)(C)C)c(O)c(C(C)(C)C)c1)Sc1cc(C(C)(C)C)c(OC(=O)COCC(=O)O)c(C(C)(C)C)c1 [{2,6-Di-tert-butyl-4-[1-(3,5-di-tert-butyl-4-hydroxy-phenylsulfanyl)-1-methyl-ethylsulfanyl]-phenoxycarbonylmethoxy}-acetic acid] | 37 µM |
